Test results reported in publication PMC8893300, “A Dynamic Mass Redistribution Assay for the Human Sweet Taste Receptor Uncovers G-Protein Dependent Biased Ligands” (Frontiers in Pharmacology, 2022).

System: human sweet taste receptor (hT1R2/hT1R3) coupled to Gα16gust25
Assay: FLIPR calcium mobilization assay, R2/R3 Gα16gust25 U2OS cells
Type: cell-based
Conditions: for ΔlogR FLIPR Mean: FLIPR-Gα16gust25, operational model, logR minus sucralose logR; for ΔΔlogR Mean: ΔlogR FLIPR-Gα16gust25 minus ΔlogR DMR
Description: The R2/R3 U2OS clone produced above was subsequently transfected with a linearized plasmid encoding Gα16gust25 in pcDNA3-neo. Transfected cells surviving triple selection in growth medium containing 0.5 μg/ml Puromycin (for hT1R2 expression), 100 μg/ml zeocin (for hT1R3 expression) and 500 μg/ml geneticin (Gα16gust25 expression) were diluted at various densities to obtain isolated colonies. Individual colonies were expanded, and the presence of functional human sweet receptor and G protein was evaluated in a FLIPR assay using sucralose as the agonist. Selected colonies were further evaluated with a larger panel of agonists. One clone, called L1F2, was used for this study.
Cells were gently mixed with the virus at a multiplicity of infection (MOI) of 5. Using a multidrop, 70 μl per well of the cell and virus mixture was dispensed in a 384-well clear bottom plate (Fisher). After 24 h of incubation in a humidified 37°C tissue culture incubator, trichostatin A was added to a final concentration of 0.3 μM and the cells were incubated for another 18–24 h at 34°C. On the day of the experiment, cells were loaded with 4 μM of the calcium indicator Fluo-4 AM (Invitrogen) in D-PBS for 1 h at room temperature. After washing the cells with D-PBS using a cell washer (BioTek) and a 30-minute rest time, the cell plate and the compound plate were transferred into the FLIPR-Tetra (Molecular Devices). Imaging and data analysis was performed as described ([Servant et al., 2010]). Alternatively, R2/R3 Gα16gust25 U2OS cells were re-suspended at a final density of 2.25 × 10^5 viable cells per mL and the mixture was dispensed in a 384-well clear bottom plate (Fisher) at 80 μl per well. Loading and the FLIPR assay were run as described above. When indicated, data for agonist dose-responses were normalized to data obtained with a maximum concentration of sucralose (1 mM) and then fitted and plotted using GraphPad Prism (San Diego, CA) and non-linear regression analysis.
To visualize and assess bias between the two different cell-based assays, we used bias plotting as described ([Drake et al., 2008]; [Peters and Scott, 2009]; [Gregory et al., 2010]; [Thomsen et al., 2012]; [Kenakin, 2015]; [Montero-Melendez et al., 2015]). To calculate relative potency bias between the two assays, we calculated a ratio of the negative logarithm of the EC50 (in M) of each agonist to that of sucralose (a sucralose dose-response was performed as a control on the same day) as described: pEC50 compound X–pEC50 sucralose. This value, that we termed pEC50Ratio (sucralose) or pEC50R (sucralose), was calculated with EC50 values obtained in the two assay systems. This transformation also allowed determination of an average and a standard error for the pEC50R (sucralose). The two sets of data (DMR and FLIPR data) were then analyzed with an un-paired t-test (α = 0.05). To calculate relative efficacy bias between the two assays, we captured the top asymptote value from each activity-normalized dose-response curve, as provided by the curve fit, calculated an average and a standard deviation (sd) for each agonist and then analyzed the data pairs with an un-paired t-test (α = 0.05). Assay bias was also estimated using an operational model ([Kenakin et al., 2012]; [Nagi and Pineyro, 2016]). The following steps were followed: 1) Using the PRISM software, we re-analyzed each ligand’s dose-response data obtained in each assay with non-linear regression and the users-defined equation “New Operational Model with TauKa ratios” and retrieved logR values from the fits.

SMILES	ΔlogR FLIPR Mean	ΔΔlogR Mean
COC(=O)[C@H](Cc1ccccc1)NC(=O)[C@H](CC(=O)O)NCCC(C)(C)C [Neotame]	1.52	0.36
CC(C)Oc1ccc(NC(=S)NCc2ccc[nH]2)cc1 [S819]	2.40	−0.13
CC(C)Oc1ccc(NC(=S)NCc2cccs2)cc1 [S5227]	1.73	−0.12
